Results taken from PubChem BioAssay AID264 (DTP/NCI, 2004).
“And” between values parts separate entries of the source, which are not always exact repeats. Identical values can stand only once. Inconclusive results are not listed.

Tested on: nude mice, LX-1 lung xenograft intrarenal, tumor weight T/C
Test: NCI In Vivo Anticancer Drug Screen. Data for tumor model Human Lung LX-1 Xenograft (intrarenal inoculation) in NU/NU Swiss (nude) mice
Settings: endpoint: mean tumor weight change, higher = larger tumour
Outline: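 In vivo, transplantable tumor; compound vs vehicle arms; tumor size measured; value = T/C.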

[1] = dose: 50.0 mg/kg/injection, schedule: Q04DX003 (sc), vehicle: saline
[2] = dose: 100.0 mg/kg/injection, schedule: Q04DX003 (sc), vehicle: suspension in saline
[3] = dose: 400.0 mg/kg/injection, schedule: Q04DX003 (sc), vehicle: suspension in saline
[4] = dose: 300.0 mg/kg/injection, schedule: Q04DX003 (sc), vehicle: saline with Tween-80
[5] = dose: 100.0 mg/kg/injection, schedule: Q04DX003 (sc), vehicle: saline with Tween-80
[6] = dose: 200.0 mg/kg/injection, schedule: Q04DX003 (sc), vehicle: saline with Tween-80
[7] = dose: 400.0 mg/kg/injection, schedule: Q04DX003 (sc), vehicle: saline with Tween-80
[8] = dose: 800.0 mg/kg/injection, schedule: Q04DX003 (sc), vehicle: saline with Tween-80
[9] = dose: 75.0 mg/kg/injection, schedule: Q04DX003 (sc), vehicle: saline with Tween-80
[10] = dose: 150.0 mg/kg/injection, schedule: Q04DX003 (sc), vehicle: saline with Tween-80

## NC(=O)c1ccc[n+](Cc2c(Cl)cccc2Cl)c1
[1]
  T/C: 115 % of control
dose: 100.0 mg/kg/injection, schedule: Q04DX003 (sc), vehicle: saline
  T/C: 83 % of control
dose: 200.0 mg/kg/injection, schedule: Q04DX003 (sc), vehicle: saline
  T/C: 90 % of control

## C/C=C/C=C/c1cc2cc3c(c(O)c2c(=O)[nH]1)C1(CC3)C(O)=c2c(=O)c3c(=O)cc(OC)c(=O)c=3c(=O)c2=C1O (stereo unspecified)
dose: 0.5 mg/kg/injection, schedule: Q01DX010 (sc), vehicle: DMSO
  T/C: 221 % of control
dose: 1.0 mg/kg/injection, schedule: Q01DX010 (sc), vehicle: DMSO
  T/C: 162 % of control
dose: 2.0 mg/kg/injection, schedule: Q01DX010 (sc), vehicle: DMSO
  T/C: 92 % of control and 104 % of control
dose: 4.0 mg/kg/injection, schedule: Q01DX010 (sc), vehicle: DMSO
  T/C: 103 % of control and 111 % of control
dose: 8.0 mg/kg/injection, schedule: Q01DX010 (sc), vehicle: DMSO
  T/C: 106 % of control
dose: 16.0 mg/kg/injection, schedule: Q01DX010 (sc), vehicle: DMSO
  T/C: 86 % of control

## CCOC(OCC)C(=O)OCC(=O)[C@]1(O)Cc2c(O)c3c(c(O)c2[C@@H](OC2CC(N)C(O)C(C)O2)C1)C(=O)c1c(OC)cccc1C3=O (stereo partly specified)
dose: 2.0 mg/kg/injection, schedule: Q01DX010 (sc), vehicle: water
  T/C: 68 % of control
dose: 4.0 mg/kg/injection, schedule: Q01DX010 (sc), vehicle: water
  T/C: 27 % of control

## [CH3][Sn]([CH3])([Cl])[S]CCN
dose: 18.75 mg/kg/injection, schedule: Q04DX003 (sc), vehicle: saline
  T/C: 62 % of control
dose: 37.5 mg/kg/injection, schedule: Q04DX003 (sc), vehicle: saline
  T/C: 95 % of control
dose: 75.0 mg/kg/injection, schedule: Q04DX003 (sc), vehicle: saline
  T/C: 82 % of control

## CC(=O)Oc1c(C)[nH]ccc1=O
dose: 300.0 mg/kg/injection, schedule: Q04DX003 (sc), vehicle: suspension in saline
  T/C: 73 % of control
dose: 600.0 mg/kg/injection, schedule: Q04DX003 (sc), vehicle: suspension in saline
  T/C: 65 % of control

## Cc1ccc2nc(-c3ccc4nc(-c5ccc(N=Nc6ccc(-c7nc8ccc(-c9nc%10ccc(C)c(S(=O)(=O)O)c%10s9)cc8s7)cc6)cc5)sc4c3)sc2c1S(=O)(=O)O
[2]
  T/C: 76 % of control
[3]
  T/C: 64 % of control
dose: 800.0 mg/kg/injection, schedule: Q04DX003 (sc), vehicle: suspension in saline
  T/C: 101 % of control

## O=c1[nH]cc(F)c(=O)[nH]1
dose: 5.0 mg/kg/injection, schedule: Q01DX010 (sc), vehicle: saline
  T/C: 107 % of control
dose: 20.0 mg/kg/injection, schedule: Q01DX010 (sc), vehicle: saline
  T/C: 56 % of control
dose: 40.0 mg/kg/injection, schedule: Q01DX010 (sc), vehicle: saline
  T/C: 25 % of control

## Cn1cnc([N+](=O)[O-])c1Sc1ncn[nH]1
[2]
  T/C: 96 % of control
dose: 200.0 mg/kg/injection, schedule: Q04DX003 (sc), vehicle: suspension in saline
  T/C: 96 % of control
[3]
  T/C: 32 % of control

## ClCCCN1CCN(CCCCl)CC1
dose: 150.0 mg/kg/injection, schedule: Q04DX003 (sc), vehicle: distilled water + alcohol
  T/C: 90 % of control

## NC(Cc1ccc(N(CCCl)CCCl)cc1)C(=O)O (stereo unspecified)
dose: 2.5 mg/kg/injection, schedule: Q04DX003 (sc), vehicle: Klucel (hydroxypropylcellulose) (HPC)
  T/C: 75 % of control
dose: 5.0 mg/kg/injection, schedule: Q04DX003 (sc), vehicle: Klucel (hydroxypropylcellulose) (HPC)
  T/C: 105 % of control
dose: 40.0 mg/kg/injection, schedule: Q04DX003 (sc), vehicle: Klucel (hydroxypropylcellulose) (HPC)
  T/C: 22 % of control

## Cc1cn(C2CC(O)C(CO)O2)c(=O)[nH]c1=O (stereo unspecified)
dose: 800.0 mg/kg/injection, schedule: Q04DX003 (sc), vehicle: saline
  T/C: 94 % of control
dose: 1600.0 mg/kg/injection, schedule: Q04DX003 (sc), vehicle: saline
  T/C: 70 % of control
dose: 3200.0 mg/kg/injection, schedule: Q04DX003 (sc), vehicle: saline
  T/C: 71 % of control
dose: 6400.0 mg/kg/injection, schedule: Q04DX003 (sc), vehicle: saline
  T/C: 61 % of control

## COc1cccc(C2NC(=O)c3c(n[nH]c3N)S2)c1O (stereo unspecified)
[4]
  T/C: 171 % of control
dose: 600.0 mg/kg/injection, schedule: Q04DX003 (sc), vehicle: saline with Tween-80
  T/C: 77 % of control
dose: 1200.0 mg/kg/injection, schedule: Q04DX003 (sc), vehicle: saline with Tween-80
  T/C: 95 % of control
dose: 2400.0 mg/kg/injection, schedule: Q04DX003 (sc), vehicle: saline with Tween-80
  T/C: 162 % of control

## COc1ccc2c(c1)CCC(c1ccccc1)=C2c1ccc(OCCN2CCCC2)cc1
dose: 100.0 mg/kg/injection, schedule: Q04DX003 (sc), vehicle: Klucel (hydroxypropylcellulose) (HPC)
  T/C: 116 % of control
dose: 200.0 mg/kg/injection, schedule: Q04DX003 (sc), vehicle: Klucel (hydroxypropylcellulose) (HPC)
  T/C: 85 % of control
dose: 400.0 mg/kg/injection, schedule: Q04DX003 (sc), vehicle: Klucel (hydroxypropylcellulose) (HPC)
  T/C: 57 % of control
dose: 800.0 mg/kg/injection, schedule: Q04DX003 (sc), vehicle: Klucel (hydroxypropylcellulose) (HPC)
  T/C: 101 % of control

## CC[C@@]1(O)C(=O)OCc2c1cc1n(c2=O)Cc2cc3cc(O)ccc3nc2-1
dose: 32.0 mg/kg/injection, schedule: Q04DX003 (sc), vehicle: suspension in saline
  T/C: 12 % of control and 14 % of control

## O=Cc1ccc(O)c(O)c1
[5]
  T/C: 172 % of control
[6]
  T/C: 100 % of control
[7]
  T/C: 86 % of control
[8]
  T/C: 73 % of control

## COc1ccc2nc3cc(Cl)ccc3c(NCCNCCNCCNc3c4ccc(Cl)cc4nc4ccc(OC)cc34)c2c1
dose: 12.5 mg/kg/injection, schedule: Q01DX010 (sc), vehicle: saline with Tween-80
  T/C: 81 % of control
dose: 50.0 mg/kg/injection, schedule: Q01DX010 (sc), vehicle: saline with Tween-80
  T/C: 106 % of control
dose: 200.0 mg/kg/injection, schedule: Q01DX010 (sc), vehicle: saline with Tween-80
  T/C: 70 % of control
dose: 400.0 mg/kg/injection, schedule: Q01DX010 (sc), vehicle: saline with Tween-80
  T/C: 46 % of control

## COc1ccc(C(=O)C(CN(C)C)CN(C)C)cc1
dose: 12.5 mg/kg/injection, schedule: Q04DX003 (sc), vehicle: saline
  T/C: 68 % of control
dose: 25.0 mg/kg/injection, schedule: Q04DX003 (sc), vehicle: saline
  T/C: 113 % of control
[1]
  T/C: 64 % of control

## Cc1ccccc1CN1C2=NCCN2C(=O)C2=C1CCN(S(=O)(=O)c1ccc(Cl)c(S(N)(=O)=O)c1)C2
dose: 150.0 mg/kg/injection, schedule: Q04DX003 (sc), vehicle: saline
  T/C: 77 % of control
dose: 300.0 mg/kg/injection, schedule: Q04DX003 (sc), vehicle: saline
  T/C: 96 % of control
dose: 600.0 mg/kg/injection, schedule: Q04DX003 (sc), vehicle: saline
  T/C: 155 % of control

## CN=S(=O)(OCCCCCOS(=O)(=NC)c1ccc(C)cc1)c1ccc(C)cc1 (stereo unspecified)
dose: 37.5 mg/kg/injection, schedule: Q04DX003 (sc), vehicle: saline with Tween-80
  T/C: 72 % of control
[9]
  T/C: 83 % of control
[10]
  T/C: 88 % of control
[4]
  T/C: 30 % of control

## O=NN(CCF)C(=O)NC1CCCCC1
dose: 6.25 mg/kg/injection, schedule: Q04DX003 (sc), vehicle: Klucel (hydroxypropylcellulose) (HPC)
  T/C: 66 % of control
dose: 12.5 mg/kg/injection, schedule: Q04DX003 (sc), vehicle: Klucel (hydroxypropylcellulose) (HPC)
  T/C: 39 % of control

## CC(=O)OC1C(O)C(C)OC(OC2C(OC(=O)C3CCC4C(C3)OC3(CC(OC(=O)/C=C/c5ccccc5)C(C)CO3)C43CO3)OC(C)C(O)C2OC(C)=O)C1O (stereo unspecified)
dose: 15.0 mg/kg/injection, schedule: Q04DX003 (sc), vehicle: distilled water + Tween-80
  T/C: 114 % of control
dose: 30.0 mg/kg/injection, schedule: Q04DX003 (sc), vehicle: distilled water + Tween-80
  T/C: 121 % of control
dose: 60.0 mg/kg/injection, schedule: Q04DX003 (sc), vehicle: distilled water + Tween-80
  T/C: 162 % of control

## COc1cc(C(C)(C)C)cc(OC)c1C(O)(c1c(OC)cc(C(C)(C)C)cc1OC)c1c(OC)cc(C(C)(C)C)cc1OC
[5]
  T/C: 91 % of control
[6]
  T/C: 68 % of control
[7]
  T/C: 98 % of control
[8]
  T/C: 86 % of control

## CN=C(N)N/N=C(\C)c1ccc2oc3ccc(/C(C)=N/NC(N)=NC)cc3c2c1
[9]
  T/C: 89 % of control
[10]
  T/C: 65 % of control
